Experimental findings from patent US9745284B2, “2-pyridyloxy-4-ether orexin receptor antagonists” (MERCK SHARP & DOHME CORP., priority 2013, dated 2017) are described below.

For assay [1], the target named is hOX1R (Homo sapiens, UniProt O43613). Kind of assay: FLIPR Ca2+ flux assay, orexin-1 receptor. Type of assay: cell-based. Conditions: CHO cells expressing orexin-1 receptor; agonist 70 pM Ala-6,12 orexin-A.
Assay [2] has as its target human orexin-2 receptor (Homo sapiens (Human), UniProt O43614). Put plainly: FLIPR Ca2+ flux assay, orexin-2 receptor. Type of assay: cell-based. The note with it: CHO cells expressing human orexin-2 receptor; agonist 70 pM Ala-6,12 orexin-A; read-out: hOX2R FLIPR IC50. The method, then: The utility of the compounds in accordance with the present invention as orexin receptor OX1R and/or OX2R antagonists may be readily determined without undue experimentation by methodology well known in the art, including the “FLIPR Ca^2+ Flux Assay” (Okumura et al., Biochem. Biophys. Res. Comm. 280:976-981, 2001). In a typical experiment the OX1 and OX2 receptor antagonistic activity of the compounds of the present invention was determined in accordance with the following experimental method. For intracellular calcium measurements, Chinese hamster ovary (CHO) cells expressing the rat orexin-1 receptor or the human orexin-2 receptor, are grown in Iscove's modified DMEM containing 2 mM L-glutamine, […], 1% hypoxanthine-thymidine supplement, 100 U/ml penicillin, 100 μg/ml streptomycin and 10% heat-inactivated fetal calf serum (FCS). The cells are seeded at 20,000 cells/well into Becton-Dickinson black 384-well clear bottom sterile plates coated with poly-D-lysine. All reagents were from GIBCO-Invitrogen Corp. The seeded plates are incubated overnight at 37° C. and 5% CO2. Ala-6,12 human orexin-A as the agonist is prepared as a 1 mM stock solution in 1% bovine serum albumin (BSA) and diluted in assay buffer (HBSS containing 20 mM HEPES, 0.1% BSA and 2.5 mM probenecid, pH7.4) for use in the assay at a final concentration of 70 pM. Test compounds are prepared as 10 mM stock solution in DMSO, then diluted in 384-well plates, first in DMSO, then assay buffer. On the day of the assay, cells are washed 3 times with 100 μl assay buffer and then incubated for 60 min (37° C., 5% CO2) in 60 μl assay buffer containing 1 μM Fluo-4AM ester, 0.02% pluronic acid, and 1% BSA. The dye loading solution is then aspirated and cells are washed 3 times with 100 μl assay buffer. 30 μl of that same buffer is left in each well. Within the Fluorescent Imaging Plate Reader (FLIPR, Molecular Devices), test compounds are added to the plate in a volume of 25 μl, incubated for 5 min and finally 25 μl of agonist is added. Fluorescence is measured for each well at 1 second intervals for 5 minutes and the height of each fluorescence peak is compared to the height of the fluorescence peak induced by 70 pM Ala-6,12 orexin-A with buffer in place of antagonist. For each antagonist, IC50 value (the concentration of compound needed to inhibit 50% of the agonist response) is determined. Alternatively, compound potency can be assessed by a radioligand binding assay (described in Bergman et. al. Bioorg. Med. Chem. Lett. 2008, 18, 1425-1430) in which the inhibition constant (Ki) is determined in membranes prepared from CHO cells expressing either the OX1 or OX2 receptor. The intrinsic orexin receptor antagonist activity of a compound which may be used in the present invention may be determined by these assays.

Molecules are shown by their SMILES.

Chain of human orexin-2 receptor (O43614 whole entry): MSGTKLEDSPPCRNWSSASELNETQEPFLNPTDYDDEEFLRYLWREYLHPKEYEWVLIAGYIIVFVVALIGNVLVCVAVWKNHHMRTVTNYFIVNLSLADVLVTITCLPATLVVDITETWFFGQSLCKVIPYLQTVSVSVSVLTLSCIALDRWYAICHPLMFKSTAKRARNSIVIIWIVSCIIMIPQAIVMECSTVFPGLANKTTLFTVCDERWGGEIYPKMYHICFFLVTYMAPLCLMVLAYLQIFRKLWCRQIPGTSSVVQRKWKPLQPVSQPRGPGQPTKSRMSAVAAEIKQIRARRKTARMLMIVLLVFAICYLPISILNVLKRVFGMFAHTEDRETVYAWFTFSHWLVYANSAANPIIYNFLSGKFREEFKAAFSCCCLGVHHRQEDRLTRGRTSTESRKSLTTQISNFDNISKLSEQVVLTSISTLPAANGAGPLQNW

With `C[C@@H]1CC[C@@H](Oc2cc(OCC(F)F)ccn2)CN1C(=O)c1ccc(F)cc1-n1nccn1` [Example 35, 4-(2,2-difluoroethoxy)-2-{[(3R,6R)-1-{[4-fluoro-2-(2H-1,2,3-triazol-2-yl)phenyl]carbonyl}-6-methylpiperidin-3-yl]oxy}pyridine], the results for the IC50 in assay [1] and in assay [2] were 3270 nM and 62 nM, respectively.

Take `C[C@@H]1CC[C@@H](Oc2cc(OCC(F)F)ccn2)CN1C(=O)c1ccc(F)cc1-c1ncccn1` [Example 46, 2-(2-{[(2R,5R)-5-{[4-(2,2-difluoroethoxy)pyridin-2-yl]oxy}-2-methylpiperidin-1-yl]carbonyl}-5-fluorophenyl)pyrimidine]: the 50% inhibitory concentration (IC50) (as a rule, the concentration that inhibits the measured activity by half) in assay [1] turned out to be 3520 nM; in assay [2] it was 63 nM.

For the compound `COc1ccnc(O[C@@H]2CC[C@@H](C)N(C(=O)c3ccc(OC)nc3-c3ccccc3)C2)c1` [Example 15, 6-methoxy-3-({(2R,5R)-5-[(4-methoxypyridin-2-yl)oxy]-2-methylpiperidin-1-yl}carbonyl)-2-phenylpyridine], the values for the 50% inhibitory concentration (IC50) in assay [1] and in assay [2] were 746 nM and 24.5 nM, respectively.

Consider `C[C@@H]1CC[C@@H](Oc2cc(OCc3ccccc3)ccn2)CN1C(=O)c1ccccc1-n1nccn1` [Example 4, 4-(benzyloxy)-2-{[(3R,6R)-6-methyl-1-{[2-(2H-1,2,3-triazol-2-yl)phenyl]carbonyl}piperidin-3-yl]oxy}pyridine], for which the results for the IC50 in assay [1] and in assay [2] were 1850 nM and 59.4 nM, respectively.

For `COc1ccnc(O[C@@H]2CC[C@@H](C)N(C(=O)c3ccsc3-c3ncccn3)C2)c1` [Example 58, ((2R,5R)-5-((4-Methoxypyridin-2-yl)oxy)-2-methylpiperidin-1-yl)(2-(pyrimidin-2-yl)thiophen-3-yl)methanone], the concentration for half-maximal inhibition (IC50) in assay [1] came out at 1110 nM; in assay [2], 21 nM.

Turning to `COc1ccnc(O[C@@H]2CC[C@@H](C)N(C(=O)c3ccccc3C(F)(F)F)C2)c1` [Example 13, 4-methoxy-2-{[(3R,6R)-6-methyl-1-{[2-(trifluoromethyl)phenyl]carbonyl}piperidin-3-yl]oxy}pyridine], the IC50 worked out at 1760 nM in assay [1] and 56.2 nM in assay [2].

`COc1ccc(C(=O)N2C[C@H](Oc3cc(OC(C)C)ccn3)CC[C@H]2C)c(-n2nccn2)n1` [Example 25, 6-methoxy-3-{[(2R,5R)-2-methyl-5-{[4-(1-methylethoxy)pyridin-2-yl]oxy}piperidin-1-yl]carbonyl}-2-(2H-1,2,3-triazol-2-yl)pyridine]: the IC50 in assay [1] came out at 10000 nM; in assay [2], 110 nM.

With `C[C@@H]1CC[C@@H](Oc2cc(OCC(F)F)ccn2)CN1C(=O)c1ccccc1-n1nccn1` [Example 27, (2-(2H-1,2,3-triazol-2-yl)phenyl)((2R,5R)-5-((4-(2,2-difluoroethoxy)pyridin-2-yl)oxy)-2-methylpiperidin-1-yl)methanone], the results for the IC50 in assay [1] and in assay [2] were 1420 nM and 12 nM, respectively.

For `COc1ccnc(O[C@@H]2CC[C@@H](C)N(C(=O)c3ccccc3-n3nccn3)C2)c1C=O` [Example 50, 4-Methoxy-2-{[(3R,6R)-6-methyl-1-{[2-(2H-1,2,3-triazol-2-yl)phenyl]carbonyl}piperidin-3-yl]oxy}pyridine-3-carbaldehyde], the results for the IC50 in assay [1] and in assay [2] were 6750 nM and 37.5 nM, respectively.

Consider `C[C@@H]1CC[C@@H](Oc2cc(OCC(F)F)ccn2)CN1C(=O)c1ccccc1C1(C#N)CC1` [Example 32, 1-(2-{[(2R,5R)-5-{[4-(2,2-difluoroethoxy)pyridin-2-yl]oxy}-2-methylpiperidin-1-yl]carbonyl}phenyl) cyclopropanecarbonitrile], for which the IC50 in assay [1] amounted to 4360 nM; in assay [2] it was 24 nM.

For the compound `CCCOc1ccnc(O[C@@H]2CC[C@@H](C)N(C(=O)c3ccccc3-n3nccn3)C2)c1` [Example 43, 2-{[(3R,6R)-6-methyl-1-{[2-(2H-1,2,3-triazol-2-yl)phenyl]carbonyl}piperidin-3-yl]oxy}-4-propoxypyridine], the IC50 in assay [1] amounted to 2490 nM; in assay [2], 38.7 nM.

For the compound `C[C@@H]1CC[C@@H](Oc2cc(OCC(F)F)ccn2)CN1C(=O)c1ncccc1-c1ncccn1` [Example 47, 2-(2-{[(2R,5R)-5-{[4-(2,2-difluoroethoxy)pyridin-2-yl]oxy}-2-methylpiperidin-1-yl]carbonyl}pyridin-3-yl)pyrimidine], the IC50 was 9270 nM in assay [1] and 84 nM in assay [2].

As to `COc1ccnc(O[C@@H]2CC[C@@H](C)N(C(=O)c3ccc(OC)nc3-n3nccn3)C2)c1` [Example 18], the values for the 50% inhibitory concentration (IC50) in assay [1] and in assay [2] were 10000 nM and 94.5 nM, respectively.

For the compound `C[C@@H]1CC[C@@H](Oc2cc(OC3CC3)ccn2)CN1C(=O)c1ccccc1-n1nccn1` [Example 40, 4-(Cyclopropyloxy)-2-{[(3R,6R)-6-methyl-1-{[2-(2H-1,2,3-triazol-2-yl)phenyl]carbonyl}-piperidin-3-yl]oxy}pyridine], the half-maximal inhibitory concentration (IC50) in assay [1] is 581 nM; in assay [2], 15.2 nM.

On to `C[C@@H]1CC[C@@H](Oc2cc(OCC(F)(F)F)ccn2)CN1C(=O)c1ccccc1-n1ncnn1` [Example 30, 2-{[(3R,6R)-6-methyl-1-{[2-(2H-tetrazol-2-yl)phenyl]carbonyl}piperidin-3-yl]oxy}-4-(2,2,2-trifluoroethoxy)pyridine], for which the half-maximal inhibitory concentration (IC50) in assay [1] was 10000 nM; in assay [2] it was 38 nM.

Take `C[C@@H]1CC[C@@H](Oc2cc(OCF)ccn2)CN1C(=O)c1ccccc1-n1nccn1` [Example 53, (2-(2H-1,2,3-Triazol-2-yl)phenyl)((2R,5R)-5-((4-(fluoromethoxy)pyridin-2-yl)oxy)-2-methylpiperidin-1-yl)methanone]: the IC50 in assay [1] worked out at 490 nM; in assay [2], 8 nM.

`CCOc1ccnc(O[C@@H]2CC[C@@H](C)N(C(=O)c3ccsc3-c3ncccn3)C2)c1` [Example 65, ((2R,5R)-5-(4-Ethoxypyridin-2-yloxy)-2-methylpiperidin-1-yl)(2-(pyrimidin-2-yl)thiophen-3-yl)methanone]: the IC50 in assay [1] is 899 nM; in assay [2], 26 nM.

Regarding `CC(C)Oc1ccnc(O[C@@H]2CC[C@@H](C)N(C(=O)c3ccccc3-n3nccn3)C2)c1` [Example 5, 4-(1-Methylethoxy)-2-{[(3R,6R)-6-methyl-1-{[2-(2H-1,2,3-triazol-2-yl)phenyl]carbonyl}piperidin-3-yl]oxy}pyridine], the IC50 in assay [1] turned out to be 669 nM; in assay [2], 15.1 nM.

Consider `CC(C)Oc1ccnc(O[C@@H]2CC[C@@H](C)N(C(=O)c3ccccc3-n3ncnn3)C2)c1` [Example 7, 4-(1-methylethoxy)-2-{[(3R,6R)-6-methyl-1-{[2-(2H-tetrazol-2-yl)phenyl]carbonyl}piperidin-3-yl]oxy}pyridine], for which the IC50 amounted to 1200 nM in assay [1] and 23 nM in assay [2].

Take `C[C@@H]1CC[C@@H](Oc2cc(OC(F)F)ccn2)CN1C(=O)c1cscc1-n1nccn1` [Example 55, 4-(difluoromethoxy)-2-{[(3R,6R)-6-methyl-1-{[4-(2H-1,2,3-triazol-2-yl)thiophen-3-yl]carbonyl}piperidin-3-yl]oxy}pyridine]: the IC50 in assay [1] turned out to be 1760 nM; in assay [2], 13 nM.

Regarding `C[C@@H]1CC[C@@H](Oc2cc(OCC(F)(F)F)ccn2)CN1C(=O)c1ccsc1-c1ncccn1` [Example 66, 2-(3-{[(2R,5R)-2-methyl-5-{[4-(2,2,2-trifluoroethoxy)pyridin-2-yl]oxy}piperidin-1-yl]carbonyl}thiophen 2-yl)pyrimidine], the IC50 in assay [1] was found to be 2080 nM; in assay [2] it was 26 nM.

With `CC(C)Oc1ccnc(O[C@@H]2CC[C@@H](C)N(C(=O)c3ccsc3-n3nccn3)C2)c1` [Example 61, 4-(1-methylethoxy)-2-{[(3R,6R)-6-methyl-1-{[2-(2H-1,2,3-triazol-2-yl)thiophen-3-yl]carbonyl}piperidin-3-yl]oxy}pyridine], the IC50 was 1480 nM in assay [1] and 25 nM in assay [2].

For the compound `CC(C)Oc1ccnc(O[C@@H]2CC[C@@H](C)N(C(=O)c3ccc(F)cc3-n3nccn3)C2)c1` [Example 23, 2-{[(3R,6R)-1-{[4-fluoro-2-(2H-1,2,3-triazol-2-yl)phenyl]carbonyl}-6-methylpiperidin-3-yl]oxy}-4-(1-methylethoxy) pyridine], the values for the IC50 in assay [1] and in assay [2] were 2140 nM and 41.2 nM, respectively.
